Here are results for 1 compound from article PMC4286029 (Inflammation Research, 2014).

The target in one assay is T1, MEK1 (Homo sapiens, UniProt Q02750).
T1 construct: purchased Millipore Co. Ltd. (KinaseProfiler service)
As to the kind of experiment: KinaseProfiler selectivity: MEK1. Type of assay: biochemical. As for the experimental part:
[…]; The selectivity of JTE-052 for other kinases was assessed using KinaseProfiler™ (Millipore Co. Ltd.). […].

Assay [1] concerns IL-2-induced IFN-γ production. As to the kind of experiment: IL-2-induced IFN-γ production in mice. Type of assay: in vivo, DBA/1J mice. The conditions noted are these: Mus musculus, po. As to the method: DBA/1J mice were dosed once via oral gavage with compounds. At 1 or 6 h after compound administration, the mice were injected intraperitoneally with 2 μg of recombinant mouse IL-2 and 10 μg of biotinylated anti-mouse IFN-γ capture antibody. After 6 h, the mice were euthanized, and blood was collected. Serum IFN-γ was quantified using a Mouse IFN-γ In Vivo Capture Assay Set (BD Biosciences).
After 1 or 6 h, they were injected with IL-2 and anti-mouse IFN-γ capture antibody. At 6 h after the injection, blood samples were collected, and the serum IFN-γ levels were measured.

T1 sequence (Q02750 whole entry, species assumed): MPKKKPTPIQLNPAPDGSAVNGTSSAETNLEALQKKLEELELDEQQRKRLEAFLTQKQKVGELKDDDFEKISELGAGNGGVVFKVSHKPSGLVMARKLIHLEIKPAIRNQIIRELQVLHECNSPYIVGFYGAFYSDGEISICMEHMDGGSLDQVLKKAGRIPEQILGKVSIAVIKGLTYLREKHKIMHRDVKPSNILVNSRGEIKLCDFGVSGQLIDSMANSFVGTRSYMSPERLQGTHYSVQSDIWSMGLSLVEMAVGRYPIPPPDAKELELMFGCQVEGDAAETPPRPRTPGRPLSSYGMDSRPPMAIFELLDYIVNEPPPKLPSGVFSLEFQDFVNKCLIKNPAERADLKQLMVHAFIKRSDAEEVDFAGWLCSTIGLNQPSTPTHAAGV

For the compound `C[C@H]1CN(C(=O)CC#N)[C@]12CCN(c1ncnc3[nH]ccc13)C2` [JTE-052], at MEK1, the 50% inhibitory concentration (IC50) (usually the midpoint of a concentration-inhibition curve) is greater than 1000 nM. The median effective dose (ED50) (usually the dose at which the effect has come halfway, by size or by number of responders) in assay [1] (dosed 1 h prior to IL-2 injection) was 0.24 mg/kg; in assay [1] (dosed 6 h prior to IL-2 injection), 1.3 mg/kg.
